Columns and labels:
Assay type in all cases: in vivo
[1] = test system: velvetleaf (Abutilon theophrasti); experiment: Test A pre-/postemergence plant response; settings: for Velvetleaf plant response rating: visual injury, 0 to 100 scale (0 no effect, 100 complete control), approx. ten days
Procedure, shortened: (§1)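 Visual injury rating on a 0–100 scale (0 = no effect, 100 = complete control) was made versus untreated controls after about ten days in the greenhouse. Compounds, formulated in a non-phytotoxic solvent mix containing surfactant, were sprayed preemergence onto loam/sand soil and postemergence onto one- to two-leaf plants.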

[2] = test system: giant foxtail (Setaria faberii); experiment: Test A pre-/postemergence plant response; settings: for Foxtail, Giant plant response rating: visual injury, 0 to 100 scale (0 no effect, 100 complete control), approx. ten days
Procedure, shortened: as §1

[3] = test system: morningglory (Ipomoea spp.); experiment: Test A pre-/postemergence plant response; settings: for Morningglory plant response rating: visual injury, 0 to 100 scale (0 no effect, 100 complete control), approx. ten days
Procedure, shortened: as §1

[4] = test system: wheat (Triticum aestivum); experiment: Test A pre-/postemergence plant response; settings: for Wheat plant response rating: visual injury, 0 to 100 scale (0 no effect, 100 complete control), approx. ten days
Procedure, shortened: as §1

[5] = test system: pigweed (Amaranthus retroflexus); experiment: Test A pre-/postemergence plant response; settings: for Pigweed plant response rating: visual injury, 0 to 100 scale (0 no effect, 100 complete control), approx. ten days
Procedure, shortened: as §1

[6] = test system: corn (Zea mays); experiment: Test A pre-/postemergence plant response; settings: for Corn plant response rating: visual injury, 0 to 100 scale (0 no effect, 100 complete control), approx. ten days
Procedure, shortened: as §1

[7] = test system: barnyardgrass (Echinochloa crus-galli); experiment: Test A pre-/postemergence plant response; settings: for Barnyardgrass plant response rating: visual injury, 0 to 100 scale (0 no effect, 100 complete control), approx. ten days
Procedure, shortened: as §1

[8] = test system: large crabgrass (Digitaria sanguinalis); experiment: Test A pre-/postemergence plant response; settings: for Crabgrass, Large plant response rating: visual injury, 0 to 100 scale (0 no effect, 100 complete control), approx. ten days
Procedure, shortened: as §1

[9] = test system: windgrass (Apera spica-venti); experiment: Test B postemergence plant response; settings: Postemergence
Procedure, shortened: (§2)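 Plants at the 1- to 4-leaf stage (2 to 18 cm tall), grown in pots of peat moss/vermiculite medium with wetting agent and starter nutrients, received postemergence applications of test chemicals. After 13 to 15 days in a greenhouse, injury was rated visually against untreated controls on a 0 (no effect) to 100 (complete control) scale.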

[10] = test system: winter barley (Hordeum vulgare); experiment: Test B postemergence plant response; settings: for Barley plant response rating (0 to 100 scale): 62 g ai/ha, postemergence, 0 is no effect, 100 is complete control; for Plant response rating, Barley: Postemergence
Procedure, shortened: as §2

[11] = test system: chickweed (Stellaria media); experiment: Test B postemergence plant response; settings: Postemergence
Procedure, shortened: as §2

[12] = test system: canarygrass (Phalaris minor); experiment: Test B postemergence plant response; settings: Postemergence
Procedure, shortened: as §2

[13] = Postemergence, 125 g ai/ha, 0 to 100 scale where 0 is no effect and 100 is complete control
[14] = Preemergence, 125 g ai/ha, 0 to 100 scale, 0 = no effect, 100 = complete control
[15] = Preemergence, 500 g ai/ha, 0 to 100 scale, 0 = no effect, 100 = complete control
[16] = 31 g ai/ha, 0 to 100 scale (0 no effect, 100 complete control)
[17] = 125 g ai/ha, scale 0 to 100 (0 no effect, 100 complete control)
[18] = 250 g ai/ha, scale 0 to 100 (0 no effect, 100 complete control), 13 to 15 days

O=C1CCCC(O)=C1C(=O)c1cnc(-c2ccccc2)n(C2CCSCC2)c1=O [Compound 164]
Plant response rating, Velvetleaf [1, 13]: 100
Velvetleaf plant response rating ([1]; Postemergence, 500 g ai/ha): 100
Plant response rating, Velvetleaf [1, 14]: 40
Plant response rating, Velvetleaf [1, 15]: 70
Plant response rating, Foxtail, Giant [2, 13]: 100
Foxtail, Giant plant response rating ([2]; Postemergence, 500 g ai/ha): 100
Plant response rating, Foxtail, Giant [2, 14]: 40
Plant response rating, Foxtail, Giant [2, 15]: 70
Plant response rating, Morningglory [3, 13]: 100
Morningglory plant response rating ([3]; Postemergence, 500 g ai/ha): 100
Plant response rating, Morningglory [3, 14]: 10
Plant response rating, Morningglory [3, 15]: 50
Plant response rating, Wheat [4, 13]: 0
Wheat plant response rating ([4]; Postemergence, 500 g ai/ha): 20
Plant response rating, Wheat [4, 14]: 0
Plant response rating, Wheat [4, 15]: 0
Plant response rating, Pigweed [5, 13]: 100
Pigweed plant response rating ([5]; Postemergence, 500 g ai/ha): 100
Plant response rating, Pigweed [5, 14]: 60
Plant response rating, Pigweed [5, 15]: 100
Plant response rating, Corn [6, 13]: 10
Corn plant response rating ([6]; Postemergence, 500 g ai/ha): 50
Plant response rating, Corn [6, 14]: 0
Plant response rating, Corn [6, 15]: 0
Plant response rating, Barnyardgrass [7, 13]: 100
Barnyardgrass plant response rating ([7]; Postemergence, 500 g ai/ha): 100
Plant response rating, Barnyardgrass [7, 14]: 10
Plant response rating, Barnyardgrass [7, 15]: 80
Plant response rating, Crabgrass, Large [8, 13]: 90
Crabgrass, Large plant response rating ([8]; Postemergence, 500 g ai/ha): 100
Plant response rating, Crabgrass, Large [8, 14]: 30
Plant response rating, Crabgrass, Large [8, 15]: 90
Plant response rating, Windgrass [9, 16]: 5
Plant response rating, Windgrass [9, 17]: 75
Plant response rating, Windgrass [9, 18]: 85
Barley plant response rating (0 to 100 scale) ([10]; 13 to 15 days): 5
Plant response rating, Barley [10, 16]: 5
Plant response rating, Barley [10, 17]: 30
Plant response rating, Barley [10, 18]: 35
Plant response rating, Chickweed [11, 16]: 80
Plant response rating, Chickweed [11, 17]: 98
Plant response rating, Chickweed [11, 18]: 100
Plant response rating, Canarygrass [12, 16]: 40
Plant response rating, Canarygrass [12, 17]: 90
Plant response rating, Canarygrass [12, 18]: 98

O=C1CCCC(O)=C1C(=O)c1cnc(-c2cc(F)cc(F)c2)n(C2CCCCC2)c1=O [Compound 181]
Plant response rating, Velvetleaf [1, 13]: 100
Velvetleaf plant response rating ([1]; Postemergence, 500 g ai/ha): 100
Plant response rating, Velvetleaf [1, 14]: 70
Plant response rating, Velvetleaf [1, 15]: 100
Plant response rating, Foxtail, Giant [2, 13]: 100
Foxtail, Giant plant response rating ([2]; Postemergence, 500 g ai/ha): 100
Plant response rating, Foxtail, Giant [2, 14]: 30
Plant response rating, Foxtail, Giant [2, 15]: 80
Plant response rating, Morningglory [3, 13]: 30
Morningglory plant response rating ([3]; Postemergence, 500 g ai/ha): 100
Plant response rating, Morningglory [3, 14]: 0
Plant response rating, Morningglory [3, 15]: 30
Plant response rating, Wheat [4, 13]: 30
Wheat plant response rating ([4]; Postemergence, 500 g ai/ha): 60
Plant response rating, Wheat [4, 14]: 0
Plant response rating, Wheat [4, 15]: 20
Plant response rating, Pigweed [5, 13]: 100
Pigweed plant response rating ([5]; Postemergence, 500 g ai/ha): 100
Plant response rating, Pigweed [5, 14]: 100
Plant response rating, Pigweed [5, 15]: 100
Plant response rating, Corn [6, 13]: 10
Corn plant response rating ([6]; Postemergence, 500 g ai/ha): 50
Plant response rating, Corn [6, 14]: 0
Plant response rating, Corn [6, 15]: 0
Plant response rating, Barnyardgrass [7, 13]: 100
Barnyardgrass plant response rating ([7]; Postemergence, 500 g ai/ha): 100
Plant response rating, Barnyardgrass [7, 14]: 20
Plant response rating, Barnyardgrass [7, 15]: 100
Plant response rating, Crabgrass, Large [8, 13]: 90
Crabgrass, Large plant response rating ([8]; Postemergence, 500 g ai/ha): 90
Plant response rating, Crabgrass, Large [8, 14]: 90
Plant response rating, Crabgrass, Large [8, 15]: 100
Plant response rating, Windgrass [9, 16]: 40
Plant response rating, Windgrass [9, 17]: 60
Plant response rating, Windgrass [9, 18]: 65
Barley plant response rating (0 to 100 scale) ([10]; 13 to 15 days): 40
Plant response rating, Barley [10, 16]: 5
Plant response rating, Barley [10, 17]: 50
Plant response rating, Barley [10, 18]: 55
Plant response rating, Chickweed [11, 16]: 100
Plant response rating, Chickweed [11, 17]: 100
Plant response rating, Chickweed [11, 18]: 100
Plant response rating, Canarygrass [12, 16]: 50
Plant response rating, Canarygrass [12, 17]: 85
Plant response rating, Canarygrass [12, 18]: 90

Cc1ccc(Cl)cc1-n1c(-c2cccc(F)c2)ncc(C(=O)C2=C(O)CCCC2=O)c1=O [Compound 184]
Plant response rating, Velvetleaf [1, 13]: 100
Velvetleaf plant response rating ([1]; Postemergence, 500 g ai/ha): 100
Plant response rating, Velvetleaf [1, 14]: 80
Plant response rating, Velvetleaf [1, 15]: 100
Plant response rating, Foxtail, Giant [2, 13]: 90
Foxtail, Giant plant response rating ([2]; Postemergence, 500 g ai/ha): 100
Plant response rating, Foxtail, Giant [2, 14]: 30
Plant response rating, Foxtail, Giant [2, 15]: 90
Plant response rating, Morningglory [3, 13]: 50
Morningglory plant response rating ([3]; Postemergence, 500 g ai/ha): 100
Plant response rating, Morningglory [3, 14]: 10
Plant response rating, Morningglory [3, 15]: 60
Plant response rating, Wheat [4, 13]: 0
Wheat plant response rating ([4]; Postemergence, 500 g ai/ha): 50
Plant response rating, Wheat [4, 14]: 0
Plant response rating, Wheat [4, 15]: 0
Plant response rating, Pigweed [5, 13]: 100
Pigweed plant response rating ([5]; Postemergence, 500 g ai/ha): 100
Plant response rating, Pigweed [5, 14]: 70
Plant response rating, Pigweed [5, 15]: 90
Plant response rating, Corn [6, 13]: 10
Corn plant response rating ([6]; Postemergence, 500 g ai/ha): 80
Plant response rating, Corn [6, 14]: 0
Plant response rating, Corn [6, 15]: 20
Plant response rating, Barnyardgrass [7, 13]: 90
Barnyardgrass plant response rating ([7]; Postemergence, 500 g ai/ha): 100
Plant response rating, Barnyardgrass [7, 14]: 20
Plant response rating, Barnyardgrass [7, 15]: 90
Plant response rating, Crabgrass, Large [8, 13]: 80
Crabgrass, Large plant response rating ([8]; Postemergence, 500 g ai/ha): 100
Plant response rating, Crabgrass, Large [8, 14]: 30
Plant response rating, Crabgrass, Large [8, 15]: 100
Plant response rating, Windgrass [9, 16]: 60
Plant response rating, Windgrass [9, 17]: 90
Plant response rating, Windgrass [9, 18]: 100
Barley plant response rating (0 to 100 scale) ([10]; 13 to 15 days): 40
Plant response rating, Barley [10, 16]: 5
Plant response rating, Barley [10, 17]: 60
Plant response rating, Barley [10, 18]: 60
Plant response rating, Chickweed [11, 16]: 100
Plant response rating, Chickweed [11, 17]: 100
Plant response rating, Chickweed [11, 18]: 100
Plant response rating, Canarygrass [12, 16]: 45
Plant response rating, Canarygrass [12, 17]: 80
Plant response rating, Canarygrass [12, 18]: 95

O=C1CCCC(O)=C1C(=O)c1cnc(-c2cccc(F)c2)n(C2CCCCC2)c1=O [Compound 187]
Plant response rating, Velvetleaf [1, 13]: 100
Velvetleaf plant response rating ([1]; Postemergence, 500 g ai/ha): 100
Plant response rating, Velvetleaf [1, 14]: 70
Plant response rating, Velvetleaf [1, 15]: 100
Plant response rating, Foxtail, Giant [2, 13]: 80
Foxtail, Giant plant response rating ([2]; Postemergence, 500 g ai/ha): 90
Plant response rating, Foxtail, Giant [2, 14]: 30
Plant response rating, Foxtail, Giant [2, 15]: 90
Plant response rating, Morningglory [3, 13]: 100
Morningglory plant response rating ([3]; Postemergence, 500 g ai/ha): 100
Plant response rating, Morningglory [3, 14]: 80
Plant response rating, Morningglory [3, 15]: 90
Plant response rating, Wheat [4, 13]: 0
Wheat plant response rating ([4]; Postemergence, 500 g ai/ha): 0
Plant response rating, Wheat [4, 14]: 0
Plant response rating, Wheat [4, 15]: 0
Plant response rating, Pigweed [5, 13]: 100
Pigweed plant response rating ([5]; Postemergence, 500 g ai/ha): 100
Plant response rating, Pigweed [5, 14]: 60
Plant response rating, Pigweed [5, 15]: 70
Plant response rating, Corn [6, 13]: 0
Corn plant response rating ([6]; Postemergence, 500 g ai/ha): 50
Plant response rating, Corn [6, 14]: 0
Plant response rating, Corn [6, 15]: 0
Plant response rating, Barnyardgrass [7, 13]: 90
Barnyardgrass plant response rating ([7]; Postemergence, 500 g ai/ha): 100
Plant response rating, Barnyardgrass [7, 14]: 20
Plant response rating, Barnyardgrass [7, 15]: 90
Plant response rating, Crabgrass, Large [8, 13]: 90
Crabgrass, Large plant response rating ([8]; Postemergence, 500 g ai/ha): 100
Plant response rating, Crabgrass, Large [8, 14]: 30
Plant response rating, Crabgrass, Large [8, 15]: 90
Plant response rating, Windgrass [9, 16]: 10
Plant response rating, Windgrass [9, 17]: 65
Plant response rating, Windgrass [9, 18]: 80
Barley plant response rating (0 to 100 scale) ([10]; 13 to 15 days): 5
Plant response rating, Barley [10, 16]: 0
Plant response rating, Barley [10, 17]: 40
Plant response rating, Barley [10, 18]: 40
Plant response rating, Chickweed [11, 16]: 100
Plant response rating, Chickweed [11, 17]: 100
Plant response rating, Chickweed [11, 18]: 100
Plant response rating, Canarygrass [12, 16]: 10
Plant response rating, Canarygrass [12, 17]: 55
Plant response rating, Canarygrass [12, 18]: 60
